In US6806281B2 (Georgetown University, priority 1997, dated 2004):

Legend:
[1] = Drug discrimination, amphetamine substitution tests; format: in vivo, rats; details: for response rates: across all test doses
[2] = target: T1, dopamine transporter (Rattus norvegicus, UniProt P23977); test: biochemical; details: IC50 (nM) [3H]WIN 35,428 binding, rat striatal membranes
[3] = target: T1, dopamine transporter; test: biochemical; details: IC50 (nM) [3H]dopamine uptake, rat striatal synaptosomes
[4] = test system: striatal dopamine transporter; test: PET evaluation of 11C-labeled isomers; details: for specific binding to striatal dopamine transporter sites: in vivo PET
Experimental: The products were purified by HPLC on a C-18 cartridge eluted with MeOH:phosphate/triethylamine buffer, pH 7.2 (60:40).
After passage through a 0.22 μm filter, the sterile products were administered to three Rhesus monkeys and dynamic PET images were acquired over 90 minutes.

[5] = target: T1, dopamine transporter; details: relative to cocaine
[6] = target: T1, dopamine transporter; details: relative to cocaine; remark: listed apart in the source
[7] = Intravenous drug self-administration; format: in vivo, rats; details: for self-administration responding: i.v., FR10, cocaine 1 mg/kg/infusion, analog 2 0.3-3 mg/kg/infusion, analog 3 0.125-0.5 mg/kg infusion, vs saline extinction
Source text: J. Neurosci., 16, 7416-7427.
Rats were initially trained to lever press for food pellets in standard operant boxes. Following lever press training, rats were implanted with polyvinyl chloride catheters into femoral veins under halothane anesthesia (2-3% in medical grade oxygen) and were allowed to recover for an additional 7 days before initiation of i.v. drug self-administration testing. During drug self-administration sessions, food pellets were no longer delivered, and instead intravenous injections of drugs were delivered by way of the catheter.
Following this second extinction test, self-administration of piperidine analog 2 was studied at doses of 1, 3, and 0.3 mg/kg/infusion in that order. Each dose was tested for five days. During all the re-acquisition test days, a priming infusion was given at the start of the session on each day.

[8] = Locomotor activity; format: in vivo, Sprague-Dawley rats
Experimental: The locomotor effects of compound 2 were evaluated using male Swiss Webster mice according to previously published procedures: Izenwasser, S., Terry, P., Heller, B., Witkin, J. M., and Katz, J. L. (1994) Differential relationships among dopamine transporter affinities and stimulant potencies of various uptake inhibitors. Eur. J. Pharmacol., 263, 277-283.
Thus the small behavioral responses to the piperidine analog appear to last longer than that of cocaine.

[9] = Drug discrimination, cocaine substitution and co-administration tests; format: in vivo, rats

T1 sequence (P23977 whole entry): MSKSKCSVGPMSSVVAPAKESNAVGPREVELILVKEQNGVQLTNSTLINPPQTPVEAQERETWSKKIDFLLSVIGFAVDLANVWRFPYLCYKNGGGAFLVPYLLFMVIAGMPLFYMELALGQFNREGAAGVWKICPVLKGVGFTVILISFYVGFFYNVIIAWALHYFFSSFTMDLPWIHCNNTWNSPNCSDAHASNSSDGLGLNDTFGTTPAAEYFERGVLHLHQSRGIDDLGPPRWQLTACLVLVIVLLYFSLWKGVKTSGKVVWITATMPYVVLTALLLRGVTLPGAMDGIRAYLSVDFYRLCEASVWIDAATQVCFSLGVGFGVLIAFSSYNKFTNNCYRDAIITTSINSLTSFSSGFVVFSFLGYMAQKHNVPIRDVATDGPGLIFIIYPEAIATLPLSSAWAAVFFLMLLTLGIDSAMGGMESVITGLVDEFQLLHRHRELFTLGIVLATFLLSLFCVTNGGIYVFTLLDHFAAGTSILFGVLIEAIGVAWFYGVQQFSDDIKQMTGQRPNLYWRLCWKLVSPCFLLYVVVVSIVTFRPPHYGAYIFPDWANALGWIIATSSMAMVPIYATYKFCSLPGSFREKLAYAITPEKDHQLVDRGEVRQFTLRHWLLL

With `CC(N)Cc1ccccc1` (centres unmarked) [amphetamine] the response rates [1] was “remained fairly stable” and the “substitution for the discriminative stimulus effects of amphetamine” value ([1]; substitution tests) was “dose-dependent and complete substitution”.
Work on `COC(=O)C1CN(C)CCC1c1ccc(Cl)cc1` (single isomer, unassigned; (+)) [(+)-11, (+)-Methyl 4β-(4-chlorophenyl)-1-methylpiperidine-3α-carboxylate] yielded an IC50 [2] of 57.3 ± 8.1 nM and an IC50 [3] of 34.6 ± 3.2 nM.
In the case of `COC(=O)C1CN(C)CCC1c1ccc(Cl)cc1` (single isomer, unassigned; isomer 4) [cis isomer, 4-(4-chlorophenyl)-3-carbomethoxy-N-methylpiperidine], the “accumulation in brain regions (dynamic PET)” value ([4]; 11C-labeled, PET images over 90 minutes) is reported as “greater nonspecific accumulation in the cortex” and the “specific binding to striatal dopamine transporter sites” value [4] is reported as “high levels of specific binding”.
In the case of `CN1CCC(c2ccc(Cl)cc2)C(CO)C1` (single isomer, unassigned; (-)) [(−)-5, (−)-4β-(4-Chlorophenyl)-3β-(hydroxymethyl)-1-methylpiperidine], the IC50 [3] is reported as 49 ± 3 nM.
Work on `CCCC1CN(C)CCC1c1ccc(Cl)cc1` (single isomer, unassigned; (+)) [(+)-15, (+) 4β-(4-chlorophenyl)-1-methyl-3α-n-propylpiperidine] yielded an IC50 [2] of 17.2 ± 0.5 nM and an IC50 [3] of 23.2 ± 2.2 nM.
With `CCCC1CN(C)CCC1c1ccc(Cl)cc1` (single isomer, unassigned; (-)) [(−)-9, (−) 4β-(4-chlorophenyl)-1-methyl-3β-n-propylpiperidine] the “fold more potent than cocaine in binding affinity” value [5] was 33 fold, the “fold more potent than cocaine in inhibition of dopamine uptake” value [6] was 29 fold and the IC50 [2] was 3 nM. The IC50 [3] was 8.3 ± 0.6 nM.
In the case of `COC(=O)C1CN(C)CCC1c1ccc(Cl)cc1` (single isomer, unassigned; isomer 4) [trans isomer, 4-(4-chlorophenyl)-3-carbomethoxy-N-methylpiperidine], the “specific binding to striatal dopamine transporter sites” value [4] is reported as “high levels of specific binding” and the “striatal activity after unlabeled CFT” value ([4]; unlabeled CFT administered 60 minutes after injection) is reported as “selective decrease in the striatal activity”.
In the case of `CC(=O)OCC1CN(C)CCC1c1ccc(Cl)cc1` (single isomer, unassigned; (-)) [(−)-7, (−)-3β-(Acetoxymnethyl)-4β-(4-chlorophenyl)-1-methylpiperidine], the melting point is reported as 76 °C, the IC50 [2] is reported as 44.7 ± 10.5 nM and the IC50 [3] is reported as 62.9 ± 2.7 nM.
In the case of `COC(=O)[C@@H]1CN(C)CC[C@@H]1c1ccc(Cl)cc1` (racemic) [Compound (±)-1, (±)-cis-Methyl 4-(4-Chlorophenyl)-1-methylpiperidine-3-carboxylate], the melting point is reported as 98 to 99 °C.
With `COC(=O)C1CN(C)CCC1c1ccc(Cl)cc1` (single isomer, unassigned; (-)) [(−)-3, (−)-Methyl 4β-(4-chlorophenyl)-1-methylpiperidine-3β-carboxylate] the self-administration responding [7] was “rats reliably self-administered this compound”, the IC50 [2] was 24.8 ± 1.6 nM and the IC50 [3] was 85.2 ± 2.6 nM.
In the case of `COC(=O)C1CN(C)CCC1c1ccc(Cl)cc1` (racemic) [(±)-2, (±)-cis-Methyl 4-(4-Chlorophenyl)-1-methylpiperidine-3-carboxylate], the “time-course of stereotypic response” value ([8]; 90 minutes following the drug injection) is reported as “persistent at 90 minutes”, the convulsions ([8]; doses higher than 20 mg/kg i.p.) is reported as “produce convulsions” and the distance traveled ([8]; i.p., cocaine 10 mg/kg, analog 2 3-20 mg/kg, compared to saline control) is reported as “did not alter the distance traveled”. For the same compound, the “stereotypic behavior / stereotypic time” value ([8]; i.p., cocaine 10 mg/kg, analog 2 10 and 20 mg/kg, compared to saline control) was “small, statistically nonsignificant increase in stereotypic time”, the response rates [1] was “remained fairly stable” and the “effect of co-administration on drug choice and response rate of cocaine” value ([9]; analog 2 10 mg/kg plus cocaine 1.25 and 5 mg/kg) was “did not significantly alter drug choice”. For the same compound, the “response rates compared with cocaine (10 mg/kg)” value ([9]; analog 2 5 and 10 mg/kg) was “substantially lower”, the maximum cocaine-lever responding ([9]; analog 2 5 and 20 mg/kg) was 40% and the “number of infusions delivered” value ([7]; analog 2, all doses tested (0.3-3 mg/kg/infusion), vs saline extinction test) was “not significantly different from that of the saline extinction test”. For the same compound, the self-administration responding [7] was “failed to restore the self-administration responding”.
